Among the data in PubChem BioAssay (NCI) are TGI and GI50 values, retold here.

What all share (assay): NCI tumour cell line growth inhibition, 48 h
In experiment [1] the test system is KM20L2 colon.
The test system of experiment [2] is XF 498 CNS.
For experiment [3], the system named is DMS 273 small cell lung.
For experiment [4], the system named is LXFL 529 NSCLC.
The test system of experiment [5] is M19-MEL melanoma.
Experiment [6] has as its system RXF-631 renal.
Experiment [7] has as its system DMS 114 small cell lung.
The subject of experiment [8] is MDA-N.
In experiment [9] the test system is HOP-18 NSCLC.
Experiment [10] deals with P388/ADR leukemia.
For experiment [11], the system named is P388 leukemia.

Molecules are shown by their SMILES. Where “and” joins values, the source holds several entries; their conditions need not be identical. Identical values can stand only once.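 Following 48 hours of exposure in 96-well plates, responses at five concentrations were used to interpolate endpoints linearly. Here, GI50 denotes the concentration required for 50% inhibition of growth. TGI is the concentration that stops growth completely.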

`CC(=O)NC(CC(C)C)C(=O)NC(Cc1ccccc1)C(=S)N1CCCC1` (stereo unspecified): the TGI in experiment [1], in experiment [2], in experiment [3], in experiment [4], in [5] and in [6] was above 100 µM in each case. In addition, the TGI in experiment [7] is above 100 µM.
In [8], `CSc1ccc2c(c1)C(N1CCN(C)CC1)Cc1ccccc1S2` (stereo unspecified) registered a TGI of 12.1 µM.
In the case of `Cc1ccc(S(=O)(=O)N/N=C(/c2nc3ccc([N+](=O)[O-])cc3[nH]c2=O)C(O)c2ccc(C(O)/C(=N\NS(=O)(=O)c3ccc(C)cc3)c3nc4ccc([N+](=O)[O-])cc4[nH]c3=O)cc2)cc1` (stereo unspecified), the TGI in experiment [1], in [2], in experiment [3], in [4], in experiment [6] and in experiment [7] was above 100 µM in each case.
For the molecule `Cc1c(/C=N/N(C)C)oc2c1cc(O)c1ncccc12`, the TGI is above 100 µM in experiment [1]; above 100 µM in experiment [2]; 37.7 µM in experiment [3]; above 100 µM in [4]; 16 µM in [9]; 8.59 µM in experiment [7].
Regarding `O=P(O)(O)C1(P(=O)(O)O)CC1`, the TGI in experiment [1], in experiment [2], in [3], in [4], in experiment [5] and in experiment [7] was above 100 µM each time.
For `O=C(NNc1ccccc1)/C(=C/c1ccc2c(c1)OCO2)NC(=O)c1ccccc1`, the TGI in [1], in [2], in [3], in experiment [4] and in experiment [9] was above 100 µM throughout.
Take `CC(C)(C)C(C#N)(C#N)c1ccc(C(C#N)(C#N)C(C)(C)C)nn1`: the TGI in experiment [1], in experiment [2], in experiment [3], in [4], in experiment [5] and in experiment [6] was above 100 µM in each case. In addition, the TGI in [7] was above 100 µM.
On to `Brc1ccc2ns[s+]c2c1`, for which the TGI in experiment [1], in experiment [2], in experiment [3], in [4], in experiment [5] and in experiment [9] was above 100 µM throughout. The TGI in experiment [6] and in experiment [7] was above 100 µM each time.
Turning to `CC1=C(C(=O)Nc2cc(F)c(F)cc2F)C(c2ccc([N+](=O)[O-])cc2)C(C(=O)Nc2cc(F)c(F)cc2F)=C(C)N1`, the TGI in experiment [1], in experiment [4], in experiment [5] and in [7] was above 100 µM throughout.
`COC(=O)CSSCc1ccc([N+](=O)[O-])cc1`: in experiment [8], the TGI came to 34.7 µM.
On the same count and under the same terms, as for `C=C1C(=O)OC2/C=C(/C)C(OC(C)=O)C/C=C(\C)C(OC(=O)C3(C)OC3C)C(O)C12` (stereo unspecified), the figure is above 100 µM.
Take `COc1cc(CCc2ccc(N)cc2)cc(OC)c1OC`: the TGI in experiment [1], in experiment [2], in experiment [3], in experiment [4], in experiment [5] and in [9] was above 100 µM in each case. The TGI in [6] was above 100 µM; in [7], 83.8 µM.
In turn, `CN(C)CCNC(=O)c1cccc2c1Oc1c(cccc1[N+](=O)[O-])O2` displayed a TGI in experiment [8] of 12.6 µM.
Still for that read-out and setting: as for `Nc1ncnc2c1ncn2C1OC(CO)C(O)C1N` (stereo unspecified), the figure is above 100 µM.
With `CCCCCCCCCCCCCC[C@@H](O)[C@H]1CC[C@H]([C@H]2CC[C@H]([C@H](O)CCCCCC[C@@H](O)CC3=C[C@H](C)OC3=O)O2)O1`, in experiment [8], the GI50 is above 25 µM; the TGI is 6.48 µM and > 25 µM.
Turning to `CC(=O)OC1COC(n2c(=S)n(-c3ccccc3)c(=O)c3ccccc32)C(OC(C)=O)C1OC(C)=O` (stereo unspecified), the TGI in experiment [1], in experiment [2], in experiment [3], in [4], in experiment [9] and in [6] was above 100 µM each time. The molecule further registered a TGI in [7] above 100 µM.
In the case of `O=C(Nc1nc2c(ncn2C2OC(CO)C(O)C2O)c(=O)[nH]1)c1ccccc1` (stereo unspecified), the TGI in [1], in [2], in [3], in [4], in experiment [5] and in [9] was above 100 µM throughout. Further, in [6], the TGI was above 100 µM.
The molecule `CCOC(=O)COc1ccc2c(C)cc(=O)oc2c1` displayed a TGI in [8] above 100 µM.
As for `CC(=O)NNc1nc(C)c(C(=O)NNC(=O)C(=O)Nc2ccc(Cl)cc2Cl)s1`, the TGI in experiment [1], in experiment [2], in experiment [4], in [5] and in experiment [7] was above 100 µM throughout.
In experiment [8], `CN(C)C(=S)SCC(=O)Nc1ccccc1` had a TGI above 100 µM.
For the molecule `CCCCCCC[CH2][Sn]1([CH2]CCCCCCC)[O]C(=O)c2cccnc2[O]1`, the GI50 in experiment [1] was above 100 µM; in experiment [2], 42.3 µM; in [3], above 100 µM; in [4], above 100 µM; in experiment [5], above 100 µM; in experiment [6], above 100 µM. Moreover, in experiment [7], the GI50 is above 100 µM. In addition, the TGI in experiment [1], in experiment [2], in experiment [3], in [4], in [5] and in [6] was above 100 µM throughout. Moreover, in experiment [7], the TGI was above 100 µM.
`CC1=C(C(=O)Nc2ccc(Cl)c(C(=O)OC(C)C)c2)SCCO1`: the TGI was 73.9 µM in experiment [1]; above 91.3 µM in [2]; 73.1 µM in [3]; 46.4 µM in experiment [10]; 75.5 µM in experiment [5]; above 100 µM in [9]. The TGI in [11] was determined as 54.2 µM.
